Experimental data as given in patent US6337316B1, “Pharmaceutical compositions thereof, and methods of using same” (Applied Research Systems ARS Holding N.V., priority 1997, dated 2002).
Read-outs that look alike come from different tables or passages of the source. Bridge positions count the residues as written; N and C are the ends. Ends that are not written are not given here. iodoacetamide‑alkyl = not defined here

Tests used:
[1] = system: binding of CTLA-4Ig to B7 on Cess B cells; assay: CTLA-4Ig/B7 binding assay on Cess B cells by FACS; parameters: key to Binding Assay (effect on CTLA-4Ig binding to Cess B cells): −: no change in binding; +: a minor change of <10% in binding; ++: a change of >20% in binding; conditions: for Binding Assay (effect on CTLA-4Ig binding to Cess B cells): FACS, assays of 3/24, 3/25, 4/5, 4/25, one symbol per assay; for effect on CTLA-4Ig binding, retest in the Cess B binding assay: retest of positives from primary screening
Procedure: +++ was assigned if the peptide tested gave >50% change in cpm in a dose dependent fashion. In addition to the MLR, these 34 peptides were also evaluated in a CTLA-4Ig/B7 binding assay in which the ability of these peptides to affect the binding of CTLA-4Ig to B7 on Cess B cells was examined by FACS analysis.
As with the MLR, a + or − was assigned to each peptide depending on its ability to effect CTLA-4Ig binding to Cess B cells; where − represents no change in binding, + represents a minor change of <10% in binding, and a ++ represents a change of >20% in binding.

[2] = system: lymphocyte proliferation in the human MLR; format: cell-based; conditions: for Human MLR (ability to inhibit lymphocyte proliferation, cpm): peptide 12.5 to 100 μM, assays of 1/24, 1/31, 3/6, 4/17, 5/2, one symbol per assay; for effect on the human MLR in combination with CTLA-4Ig: CTLA-4Ig spiked in at 0.5 μg/ml (FIG. 8); for effect on the MLR, retest: two MLRs, peptide by itself, concentrations up to 200 μM; for inhibition of the MLR, in words: control and linear peptides compared with AT 199
Procedure: Whole blood from donors was obtained from Interstate Blood Bank, Memphis, Tenn. Blood specimens were handled in a biosafety level 2 containment facility as recommended for potentially infectious blood specimens in the CDC/NIH manual Biosafety in Microbiological and Biomedical Laboratories; 3rd edition, 1993, page 10. Peripheral blood mononuclear cells (PBMC) were separated from red blood cells and granulocytes by ficoll-hypaque purification. Whole peripheral blood was diluted 1:2 in PBS and 30 ml was overlayed onto 15 ml of ficoll-hypaque in 50 ml polypropylene tubes. The tubes were spun at 400×g for 30 min at 25° C. Following centrifugation, the interface between the upper plasma layer and the lower ficoll layer was collected, cells washed in RPMI-1640 2×, and viable counts determined using trypan blue. Cells to be used as responders in the assay were stored on ice until mitomycin C treatment of stimulator cells was completed.
PBMC, isolated as described above, to be used as stimulators in the assay were adjusted to 2-4×10^6 cells/ml in complete medium (RPMI 1640 containing 10% heat-inactivated human AB serum, 2 mM glutamine, 50 μM 2-mercaptoethanol and 100 U/ml penicillin-100 μg/ml streptomycin), and treated with mitomycin C (25 μg/ml) for 30 min in a 37° C. water bath. Following treatment, cells were washed with S volumes of complete medium 3×, and viable counts determine using trypan blue. To set up autologous stimulation controls some responder cells were also treated with mitomycin C as mentioned above.
Purified CTLA-4Ig fusion protein was produced, as described in Steurer et al. 1995, from a NS-1 cell line kindly donated by Dr. T. Strom (Beth Israel Hospital, Boston, Mass.) as a 1 mg/ml solution in sterile PBS. The protein was stored frozen at −80° C. Upon thawing, the aliquot was stored at 4° C. Purified peptides were lyophilized according to known procedures. Peptides were reconstituted in sterile PBS, pH 7.4 at 2 mM concentration, aliquoted in microfuge cubes and stored frozen at −20° C. For the assay, an aliquot of the peptide was thawed and diluted to 200 μM in complete medium.
For the one-way allogeneic mixed lymphocyte response (MLR) assay, responder cells were plated at 10^6 cells/well, and stimulator cells at 5×10^4 cells/well in 96-well round bottom plates. Cells were incubated with serial dilutions of the anti-CD4 Ab Leu 3A (1 μg/ml-0.06 μg/ml) in triplicate, or an isotype-matched control Ab. Cyclosporin A at 1 μg/ml was used as an additional control.
CTLA-4 Ig was serially diluted an.4 tested from 10 μg/ml to 0.15 μg/ml. Peptides were tested either directly or in the presence of a constant spiked-in dose of CTLA-4 Ig at 0.5 μg/ml. The plates were incubated at 37° C. in a humidified 5% CO2 atmosphere for 7 days.
Proliferation of the cells was determined by pulsing the wells with ^3H-Tdr (1 μCi/well) for the last 18 h of the assay. Plates were harvested using a Tomtec -late harvester and the counts incorporated determined using a Wallac microbetaplate plus reader.
A total of 34 peptides were tested for inhibition of lymphocyte proliferation in the human MLR. Each peptide was tested in a MLR at doses ranging from 12.5 to 100 μM. The activity of each peptide was identified by assigning a + and − tone peptide depending on its ability to inhibit lymphocyte proliferation in the MLR (cpms).

Substance | Binding Assay (effect on CTLA-4Ig binding to Cess B cells) [1] | Human MLR (ability to inhibit lymphocyte proliferation, cpm) [2] | also measured
CKIEVMYPPPYLC (disulfide 1-13 (inferred)) [AT 114.1] | Toxic | Toxic | 
AT 199.2A: resynthesis of AT 199.1, refolding prolonged to 5 days at pH 10.0; fully cyclized version (RKCLMYPPPYYCHH; disulfide 3-12 (inferred); not fully specified (C-terminus)) |  |  | inhibition of the human MLR ([2]; 100 μM, another MLR): 25%; inhibition of the human MLR ([2]; 100 μM, one MLR): 50%; effect on the human MLR in combination with CTLA-4Ig [2]: additive
HVEQPA [AT 137.1] | +/−, − | −, + | 
CDDSIC (disulfide 1-6 (inferred)) [AT 131.1] |  | +, −, − | 
CMYPPYLRGGKC (disulfide 1-12 (inferred)) [AT 109.1] | −, + |  | 
CKGLDSAVEC (disulfide 1-10 (inferred)) [AT 108.1] | − | −, −, − | 
CSPNQC (disulfide 1-6 (inferred)) [AT 135.1] | ++ (a change of >20% in binding) | +/−, − | effect on CTLA-4Ig binding, retest in the Cess B binding assay [1]: no effect; effect on the MLR, retest [2]: none of these peptide by themselves had any consistent effect
KYLVKQS [AT 120.1] | − | −, +/− | 
CSSPNQVC (disulfide 1-8 (inferred)) [AT 133.1] | ++, − | ++, + | effect on CTLA-4Ig binding, retest in the Cess B binding assay [1]: no effect; effect on the MLR, retest [2]: none of these peptide by themselves had any consistent effect
HVEQPA-OH [AT 125.1] | −, + | −, − | 
CKYSYNLFSREFC (disulfide 1-13 (inferred)) [AT 107.1] |  | −, +, +, − | 
NECTFCDD (not fully specified (bridges); cysteine pairing not given here) [AT 197.1] | −, −, − | −, −, − | 
CSKTGFNC (disulfide 1-8 (inferred)) [AT 115.1] | − | − (all concentrations of peptide tested gave <15% change in cpm) | 
KILVKQS [AT 119.1] | − | −, +/− | 
KYLVKQS-OH [AT 122.1] | +, − | −, − | 
CMYPPPYYRGGKC (disulfide 1-13 (inferred)) [AT 129.1] | ++ (a change of >20% in binding) | −, − | 
LDSAVEV-OH [AT 117.1] | + (a minor change of <10% in binding) | − (all concentrations of peptide tested gave <15% change in cpm) | 

Substance | Binding Assay (effect on CTLA-4Ig binding to Cess B cells) [1] | Human MLR (ability to inhibit lymphocyte proliferation, cpm) [2] | also measured
CMYPPPYYKAKC (disulfide 1-12 (inferred)) [AT 130.1] | −, − | −, − | 
LDSAVEV [AT 116.1] | − | − (all concentrations of peptide tested gave <15% change in cpm) | 
ADSQVTEV [AT 127.1] | +/−, +/− | −, − | 
AT 199.2B: AT 199 treated with iodoacetamide, purely linear analog with alkylated cysteines (RKC(iodoacetamide‑alkyl)LMYPPPYYC(iodoacetamide‑alkyl)HH; not fully specified (C-terminus); reading uncertain) |  |  | effect on the human MLR in combination with CTLA-4Ig [2]: no effect; inhibition of the MLR, in words [2]: no effect; inhibition of the human MLR ([2]; the MLR's, highest concentration (100 μM) tested): < 10%
CMYPPPYGKC (disulfide 1-10 (inferred)) [AT 110.1] | −, − | − (all concentrations of peptide tested gave <15% change in cpm) | 
CEYASPGKATEVC (disulfide 1-13 (inferred)) [AT 123.1] | +/−, − | −, − | 
CMYPPQYGKC (disulfide 1-10 (inferred)) [AT 111.1] | − | −, +/− | 
CRQADSQVTEC (disulfide 1-11 (inferred)) [AT 128.1] | + (a minor change of <10% in binding) | ++, − | effect on CTLA-4Ig binding, retest in the Cess B binding assay [1]: no effect; effect on the MLR, retest [2]: none of these peptide by themselves had any consistent effect
HVAQPA [AT 136.1] | +++, + | ++, +, − | effect on CTLA-4Ig binding, retest in the Cess B binding assay [1]: no effect; effect on the MLR, retest [2]: none of these peptide by themselves had any consistent effect
KCSYNLFSREFC (not fully specified (bridges); cysteine pairing not given here) [AT 106.1] | ++, ++ | ++, +, +, +/− | effect on CTLA-4Ig binding, retest in the Cess B binding assay [1]: no effect; effect on the MLR, retest [2]: none of these peptide by themselves had any consistent effect
ECASPGKATEVC (not fully specified (bridges); cysteine pairing not given here) [AT 118.1] |  | − (all concentrations of peptide tested gave <15% change in cpm) | 
RKCLAYPPPYYCHH (not fully specified (bridges); cysteine pairing not given here) [AT 200.1] | −, −, − | −, −, − | inhibition of the MLR, in words [2]: did not inhibit any of the MLRs as much as AT 199
CKIEVMYPPPYC (disulfide 1-12 (inferred)) [AT 113.1] | −, − | − (all concentrations of peptide tested gave <15% change in cpm) | 
CMYPPPYKAKC (disulfide 1-11 (inferred)) [AT 112.1] | −, − | − (all concentrations of peptide tested gave <15% change in cpm) | 
ADSQVTEV-OH [AT 124.1] | +, − | −, − | 
KILVKQS-OH [AT 121.1] |  | +/−, − | 
